Legend:
Test in all cases: relative viability (nuclei count vs DMSO), 5 days (fraction); higher = more cells survive
201T = test system: 201T
Procedure, shortened: (§1)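 Lung cancer cell lines in 1536-well plates were dosed by pin tool the day after seeding, either with one drug alone or with a fixed anchor-drug dose plus five library-drug doses (not always all listed) in √10 steps. After 5 days, cells were fixed and their nuclei stained in one step (final 0.05% Triton X-100, 1% formaldehyde, 1 ug/ml Hoechst), then counted on 4× images. Relative viability is the nuclei count in treated wells divided by that in vehicle wells. Values are medians of duplicate plates.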

BEN = test system: BEN
Procedure, shortened: as §1

COR-L 105 = test system: COR-L 105
Procedure, shortened: as §1

EKVX = test system: EKVX
Procedure, shortened: as §1

EPLC-272H = test system: EPLC-272H
Procedure, shortened: as §1

H3255 = test system: H3255
Procedure, shortened: as §1

HCC-44 = test system: HCC-44
Procedure, shortened: as §1

HCC-827 = test system: HCC-827
Procedure, shortened: as §1

LCLC-97TM1 = test system: LCLC-97TM1
Procedure, shortened: as §1

LOU-NH91 = test system: LOU-NH91
Procedure, shortened: as §1

LU99A = test system: LU99A
Procedure, shortened: as §1

NCI-H1437 = test system: NCI-H1437
Procedure, shortened: as §1

NCI-H1666 = test system: NCI-H1666
Procedure, shortened: as §1

NCI-H1975 = test system: NCI-H1975
Procedure, shortened: as §1

NCI-H2085 = test system: NCI-H2085
Procedure, shortened: as §1

NCI-H2087 = test system: NCI-H2087
Procedure, shortened: as §1

NCI-H2170 = test system: NCI-H2170
Procedure, shortened: as §1

NCI-H2342 = test system: NCI-H2342
Procedure, shortened: as §1

NCI-H647 = test system: NCI-H647
Procedure, shortened: as §1

NCI-H650 = test system: NCI-H650
Procedure, shortened: as §1

PC-3 [JPC-3] = test system: PC-3 [JPC-3]
Procedure, shortened: as §1

SW 1573 = test system: SW 1573
Procedure, shortened: as §1

CCN(CC)CCCCNc1ncc2cc(-c3cc(OC)cc(OC)c3)c(NC(=O)NC(C)(C)C)nc2n1 + Nc1nc2[nH]cc(CCc3ccc(C(=O)N[C@@H](CCC(=O)O)C(=O)O)cc3)c2c(=O)[nH]1 [Pemetrexed] (partner 0.2 µM)
relative viability (201T; first compound 0.01 µM): 0.351
relative viability (201T; first compound 0.03162 µM): 0.315
relative viability (201T; first compound 0.1 µM): 0.331
relative viability (201T; first compound 0.3162 µM): 0.349
relative viability (201T; first compound 1 µM): 0.313
relative viability (BEN; first compound 0.01 µM): 0.664
relative viability (BEN; first compound 0.03162 µM): 0.681
relative viability (BEN; first compound 0.1 µM): 0.826
relative viability (BEN; first compound 0.3162 µM): 0.77
relative viability (BEN; first compound 1 µM): 0.69
relative viability (COR-L 105; first compound 0.01 µM): 1.23
relative viability (COR-L 105; first compound 0.03162 µM): 1.12
relative viability (COR-L 105; first compound 0.1 µM): 1.18
relative viability (COR-L 105; first compound 0.3162 µM): 1.47
relative viability (COR-L 105; first compound 1 µM): 1.05
relative viability (EKVX; first compound 0.03162 µM): 0.354
relative viability (EKVX; first compound 0.1 µM): 0.362
relative viability (EKVX; first compound 0.3162 µM): 0.475
relative viability (EKVX; first compound 1 µM): 0.379
relative viability (EPLC-272H; first compound 0.01 µM): 0.386
relative viability (EPLC-272H; first compound 0.03162 µM): 0.271
relative viability (EPLC-272H; first compound 0.1 µM): 0.334
relative viability (EPLC-272H; first compound 0.3162 µM): 0.317
relative viability (EPLC-272H; first compound 1 µM): 0.26
relative viability (H3255; first compound 0.01 µM): 0.626
relative viability (H3255; first compound 0.03162 µM): 0.568
relative viability (H3255; first compound 0.1 µM): 0.615
relative viability (H3255; first compound 0.3162 µM): 0.632
relative viability (H3255; first compound 1 µM): 0.513
relative viability (HCC-44; first compound 0.01 µM): 0.682
relative viability (HCC-44; first compound 0.03162 µM): 0.705
relative viability (HCC-44; first compound 0.1 µM): 0.634
relative viability (HCC-44; first compound 0.3162 µM): 0.625
relative viability (HCC-44; first compound 1 µM): 0.721
relative viability (HCC-827; first compound 0.01 µM): 0.266
relative viability (HCC-827; first compound 0.03162 µM): 0.261
relative viability (HCC-827; first compound 0.1 µM): 0.265
relative viability (HCC-827; first compound 0.3162 µM): 0.269
relative viability (HCC-827; first compound 1 µM): 0.244
relative viability (LCLC-97TM1; first compound 0.01 µM): 0.174
relative viability (LCLC-97TM1; first compound 0.03162 µM): 0.185
relative viability (LCLC-97TM1; first compound 0.1 µM): 0.174
relative viability (LCLC-97TM1; first compound 0.3162 µM): 0.159
relative viability (LCLC-97TM1; first compound 1 µM): 0.189
relative viability (LOU-NH91; first compound 0.01 µM): 0.406
relative viability (LOU-NH91; first compound 0.03162 µM): 0.376
relative viability (LOU-NH91; first compound 0.1 µM): 0.641
relative viability (LOU-NH91; first compound 0.3162 µM): 0.388
relative viability (LOU-NH91; first compound 1 µM): 0.433
relative viability (LU99A; first compound 0.01 µM): 0.206
relative viability (LU99A; first compound 0.03162 µM): 0.177
relative viability (LU99A; first compound 0.1 µM): 0.214
relative viability (LU99A; first compound 0.3162 µM): 0.177
relative viability (LU99A; first compound 1 µM): 0.195
relative viability (NCI-H1437; first compound 0.01 µM): 0.332
relative viability (NCI-H1437; first compound 0.03162 µM): 0.309
relative viability (NCI-H1437; first compound 0.1 µM): 0.324
relative viability (NCI-H1437; first compound 0.3162 µM): 0.328
relative viability (NCI-H1437; first compound 1 µM): 0.381
relative viability (NCI-H1666; first compound 0.01 µM): 0.814
relative viability (NCI-H1666; first compound 0.03162 µM): 0.796
relative viability (NCI-H1666; first compound 0.1 µM): 0.783
relative viability (NCI-H1666; first compound 0.3162 µM): 0.942
relative viability (NCI-H1666; first compound 1 µM): 0.808
relative viability (NCI-H1975; first compound 0.01 µM): 0.286
relative viability (NCI-H1975; first compound 0.03162 µM): 0.306
relative viability (NCI-H1975; first compound 0.1 µM): 0.318
relative viability (NCI-H1975; first compound 0.3162 µM): 0.331
relative viability (NCI-H1975; first compound 1 µM): 0.283
relative viability (NCI-H2085; first compound 0.01 µM): 0.882
relative viability (NCI-H2085; first compound 0.03162 µM): 0.898
relative viability (NCI-H2085; first compound 0.1 µM): 0.894
relative viability (NCI-H2085; first compound 0.3162 µM): 1.02
relative viability (NCI-H2085; first compound 1 µM): 0.86
relative viability (NCI-H2087; first compound 0.01 µM): 0.716
relative viability (NCI-H2087; first compound 0.03162 µM): 0.637
relative viability (NCI-H2087; first compound 0.1 µM): 0.746
relative viability (NCI-H2087; first compound 0.3162 µM): 0.645
relative viability (NCI-H2087; first compound 1 µM): 0.727
relative viability (NCI-H2170; first compound 0.01 µM): 0.251
relative viability (NCI-H2170; first compound 0.03162 µM): 0.293
relative viability (NCI-H2170; first compound 0.1 µM): 0.262
relative viability (NCI-H2170; first compound 0.3162 µM): 0.238
relative viability (NCI-H2170; first compound 1 µM): 0.275
relative viability (NCI-H2342; first compound 0.01 µM): 0.762
relative viability (NCI-H2342; first compound 0.03162 µM): 0.777
relative viability (NCI-H2342; first compound 0.1 µM): 0.803
relative viability (NCI-H2342; first compound 0.3162 µM): 0.818
relative viability (NCI-H2342; first compound 1 µM): 0.755
relative viability (NCI-H647; first compound 0.01 µM): 0.188
relative viability (NCI-H647; first compound 0.03162 µM): 0.127
relative viability (NCI-H647; first compound 0.1 µM): 0.157
relative viability (NCI-H647; first compound 0.3162 µM): 0.161
relative viability (NCI-H647; first compound 1 µM): 0.136
relative viability (NCI-H650; first compound 0.01 µM): 0.877
relative viability (NCI-H650; first compound 0.03162 µM): 0.842
relative viability (NCI-H650; first compound 0.1 µM): 1.04
relative viability (NCI-H650; first compound 0.3162 µM): 1.03
relative viability (NCI-H650; first compound 1 µM): 0.948
relative viability (PC-3 [JPC-3]; first compound 0.03162 µM): 1
relative viability (PC-3 [JPC-3]; first compound 0.1 µM): 1.15
relative viability (PC-3 [JPC-3]; first compound 0.3162 µM): 1.7
relative viability (PC-3 [JPC-3]; first compound 1 µM): 0.883
relative viability (SW 1573; first compound 0.01 µM): 0.858
relative viability (SW 1573; first compound 0.03162 µM): 0.843
relative viability (SW 1573; first compound 0.1 µM): 1.08
relative viability (SW 1573; first compound 0.3162 µM): 0.944
relative viability (SW 1573; first compound 1 µM): 0.832

Source: the supplement of paper PMC10307832
